Assay results reported in publication PMC8901636, “Preclinical studies of Flonoltinib Maleate, a novel JAK2/FLT3 inhibitor, in treatment of JAK2^V617F-induced myeloproliferative neoplasms” (Blood Cancer Journal, 2022).
Read-outs that look alike come from different tables or passages of the source.

Tests used:
JAK1 = JAK1 (Homo sapiens, UniProt P23458); assay: In vitro kinase assay; conditions: read-out: JAK1 Enzyme IC50
Ba/F3-EPOR = assay: MTT assay for cell proliferation; type: cell-based, Murine; conditions: Mus musculus, 72 h, read-out: IC50(μM) ± SD, tumor cell proliferation
Method: (§1) For in vitro inhibition assays, cells were seeded in 96-well culture plates with a density of 15,000–20,000 cells/well after the cells reached 70–90% confluence. […] MTT (3-(4, 5-dimethylthiazol-2-yl)-2, 5-diphenyltetrazolium bromide) (Cat. No. 1334GR001; BioFroxx) assay was conducted in order to examine viability. The IC50 values were fitted using GraphPad Prism 7.0.

Ba/F3-FLT3-ITD^F691 = assay: MTT assay for cell proliferation; type: cell-based, Murine; conditions: Mus musculus, 72 h, read-out: IC50(μM) ± SD, tumor cell proliferation
Method: as §1

[1] = PK and tissue distribution after single oral administration in Ba/F3-EPOR-JAK2^V617F tumor-bearing mice; type: in vivo; conditions: for Kp: spleen and plasma, po
FLT3 = FLT3 (Homo sapiens, UniProt P36888); assay: In vitro kinase assay
Sequence of FLT3 (P36888 27-993): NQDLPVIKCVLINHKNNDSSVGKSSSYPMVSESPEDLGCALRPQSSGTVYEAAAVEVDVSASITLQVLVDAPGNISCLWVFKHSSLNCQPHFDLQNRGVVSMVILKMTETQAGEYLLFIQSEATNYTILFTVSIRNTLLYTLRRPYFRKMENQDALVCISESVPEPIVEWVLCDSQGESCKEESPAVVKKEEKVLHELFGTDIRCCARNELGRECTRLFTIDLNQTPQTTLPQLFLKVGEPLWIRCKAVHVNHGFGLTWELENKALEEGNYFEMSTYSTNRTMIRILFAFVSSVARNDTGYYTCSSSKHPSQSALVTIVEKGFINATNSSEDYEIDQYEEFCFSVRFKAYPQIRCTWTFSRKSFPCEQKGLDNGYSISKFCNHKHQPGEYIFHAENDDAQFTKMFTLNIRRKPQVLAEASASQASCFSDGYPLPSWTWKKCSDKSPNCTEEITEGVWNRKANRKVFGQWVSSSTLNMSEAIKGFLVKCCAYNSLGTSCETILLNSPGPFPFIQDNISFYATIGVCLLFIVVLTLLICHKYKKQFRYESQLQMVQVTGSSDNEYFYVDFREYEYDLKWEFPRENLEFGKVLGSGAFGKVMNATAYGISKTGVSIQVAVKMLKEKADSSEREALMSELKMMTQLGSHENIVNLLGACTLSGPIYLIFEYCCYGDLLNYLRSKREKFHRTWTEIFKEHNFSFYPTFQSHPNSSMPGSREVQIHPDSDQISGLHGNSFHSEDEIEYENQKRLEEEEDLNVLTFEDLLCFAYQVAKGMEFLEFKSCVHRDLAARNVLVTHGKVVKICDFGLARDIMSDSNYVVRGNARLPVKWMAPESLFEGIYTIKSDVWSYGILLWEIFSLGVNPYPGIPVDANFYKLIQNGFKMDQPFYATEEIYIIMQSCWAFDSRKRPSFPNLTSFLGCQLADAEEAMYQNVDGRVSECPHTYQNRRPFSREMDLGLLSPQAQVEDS

HEL = assay: MTT assay for cell proliferation; type: cell-based; conditions: Homo sapiens, 72 h, read-out: IC50(μM) ± SD, tumor cell proliferation
Method: as §1

Molm-13 = assay: MTT assay for cell proliferation; type: cell-based; conditions: Homo sapiens, MOLM-13, 72 h, read-out: IC50(μM) ± SD, tumor cell proliferation
Method: as §1

Ba/F3-FLT3-ITD = assay: MTT assay for cell proliferation; type: cell-based, Murine; conditions: Mus musculus, Ba/F3 FLT3-ITD, 72 h, read-out: IC50(μM) ± SD, tumor cell proliferation
Method: as §1

[2] = PK and tissue distribution after repeated oral administration in Ba/F3-EPOR-JAK2^V617F tumor-bearing mice; type: in vivo; conditions: BALB/c nude, mouse, brain, oral, 30 mg/kg, repeated, read-out: FM concentration, Brain
[3] = BALB/c nude, mouse, brain, oral, 30 mg/kg, single, read-out: FM concentration, Brain
[4] = BALB/c nude, mouse, heart, oral, 30 mg/kg, single, read-out: FM concentration, Heart
[5] = BALB/c nude, mouse, intestine, oral, 30 mg/kg, single, read-out: FM concentration, Intestine
[6] = BALB/c nude, mouse, kidney, oral, 30 mg/kg, single, read-out: FM concentration, Kidney
[7] = BALB/c nude, mouse, liver, oral, 30 mg/kg, single, read-out: FM concentration, Liver
[8] = BALB/c nude, mouse, lung, oral, 30 mg/kg, single, read-out: FM concentration, Lung
[9] = BALB/c nude, mouse, muscle, oral, 30 mg/kg, single, read-out: FM concentration, Muscle
[10] = BALB/c nude, mouse, plasma, oral, 30 mg/kg, single, read-out: FM concentration, Plasma
[11] = BALB/c nude, mouse, spleen, oral, 30 mg/kg, single, read-out: FM concentration, Spleen
[12] = BALB/c nude, mouse, stomach, oral, 30 mg/kg, single, read-out: FM concentration, Stomach
[13] = BALB/c nude, mouse, Plasma, single oral 30 mg/kg
[14] = BALB/c nude, mouse, spleen, single oral 30 mg/kg

Sequence of JAK1 (P23458 whole entry): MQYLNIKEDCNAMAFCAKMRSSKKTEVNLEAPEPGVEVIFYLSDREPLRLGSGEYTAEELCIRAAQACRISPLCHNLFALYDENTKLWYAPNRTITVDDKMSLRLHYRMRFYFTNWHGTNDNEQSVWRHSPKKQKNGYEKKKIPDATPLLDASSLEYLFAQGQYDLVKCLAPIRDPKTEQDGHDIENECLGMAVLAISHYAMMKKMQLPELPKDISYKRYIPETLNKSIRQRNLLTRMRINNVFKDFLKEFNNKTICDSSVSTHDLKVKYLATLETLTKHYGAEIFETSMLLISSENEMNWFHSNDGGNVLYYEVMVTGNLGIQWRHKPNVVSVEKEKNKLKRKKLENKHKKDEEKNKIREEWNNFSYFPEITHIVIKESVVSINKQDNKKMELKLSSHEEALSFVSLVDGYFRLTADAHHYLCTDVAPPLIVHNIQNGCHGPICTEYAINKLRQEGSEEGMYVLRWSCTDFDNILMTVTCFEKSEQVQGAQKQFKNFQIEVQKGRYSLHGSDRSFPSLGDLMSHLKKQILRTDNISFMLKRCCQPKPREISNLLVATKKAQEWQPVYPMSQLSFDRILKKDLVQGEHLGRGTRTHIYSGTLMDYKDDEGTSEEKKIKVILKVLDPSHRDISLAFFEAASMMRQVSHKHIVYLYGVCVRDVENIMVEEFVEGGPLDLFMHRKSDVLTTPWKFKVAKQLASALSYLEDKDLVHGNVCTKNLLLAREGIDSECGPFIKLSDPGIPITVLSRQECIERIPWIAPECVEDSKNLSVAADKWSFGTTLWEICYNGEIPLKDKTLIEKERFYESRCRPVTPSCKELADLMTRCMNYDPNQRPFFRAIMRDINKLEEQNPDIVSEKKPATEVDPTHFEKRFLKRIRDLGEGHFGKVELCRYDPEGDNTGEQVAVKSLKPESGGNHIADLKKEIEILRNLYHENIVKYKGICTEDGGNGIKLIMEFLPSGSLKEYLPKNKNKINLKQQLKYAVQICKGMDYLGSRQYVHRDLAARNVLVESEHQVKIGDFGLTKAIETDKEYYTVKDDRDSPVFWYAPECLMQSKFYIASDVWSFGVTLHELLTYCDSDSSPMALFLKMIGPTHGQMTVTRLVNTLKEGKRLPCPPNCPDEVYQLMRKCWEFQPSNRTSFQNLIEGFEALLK

## Cc1cnc(Nc2ccc(N3CCC(N(C)CCO)CC3)c(F)c2)nc1-c1cnn(C(C)C)c1 [FM, 2-((1-(2-fluoro-4-((4-(1-isopropyl-1H-pyrazol-4-yl)-5-methylpyrimidin-2-yl)amino)phenyl)piperidin-4-yl)(methyl)amino)ethan-1-ol]
JAK1
  IC50: 690 nM
Ba/F3-EPOR
  IC50: 0.55 ± 0.13 µM
Ba/F3-FLT3-ITD^F691
  IC50: 0.15 ± 0.02 µM
[1]; 8 h after single oral 30 mg/kg, by calculation
  drug concentration in the spleen: 2416 ± 1657 nmol/kg
[1]; [3]
  concentration at 0.5 h: 354 ± 77.1 ng/g
  concentration at 2 h: 309 ± 40.5 ng/g
  concentration at 4 h: 157 ± 58.3 ng/g
[1]; BALB/c nude, mouse, brain, oral, 30 mg/kg, single, 8 h, read-out: FM concentration, Brain
  concentration at 8 h: 38.4 ± 28.5 ng/g
[1]; [4]
  concentration at 0.5 h: 3390 ± 184 ng/g
  concentration at 2 h: 1650 ± 381 ng/g
  concentration at 4 h: 864 ± 418 ng/g
[1]; BALB/c nude, mouse, heart, oral, 30 mg/kg, single, 8 h, read-out: FM concentration, Heart
  concentration at 8 h: 199 ± 145 ng/g
[1]; [5]
  concentration at 0.5 h: 14900 ± 11400 ng/g
  concentration at 2 h: 6250 ± 3230 ng/g
  concentration at 4 h: 8490 ± 2240 ng/g
[1]; BALB/c nude, mouse, intestine, oral, 30 mg/kg, single, 8 h, read-out: FM concentration, Intestine
  concentration at 8 h: 4360 ± 4050 ng/g
[1]; [6]
  concentration at 0.5 h: 12100 ± 1260 ng/g
  concentration at 2 h: 6220 ± 855 ng/g
  concentration at 4 h: 2410 ± 1010 ng/g
[1]; BALB/c nude, mouse, kidney, oral, 30 mg/kg, single, 8 h, read-out: FM concentration, Kidney
  concentration at 8 h: 1050 ± 767 ng/g
[1]; [7]
  concentration at 0.5 h: 12800 ± 3700 ng/g
  concentration at 2 h: 6530 ± 2920 ng/g
  concentration at 4 h: 3820 ± 1480 ng/g
[1]; BALB/c nude, mouse, liver, oral, 30 mg/kg, single, 8 h, read-out: FM concentration, Liver
  concentration at 8 h: 845 ± 662 ng/g
[1]; [8]
  concentration at 0.5 h: 11600 ± 2960 ng/g
  concentration at 2 h: 3820 ± 739 ng/g
[1]; BALB/c nude, mouse, lung, oral, 30 mg/kg, single, 8 h, read-out: FM concentration, Lung
  concentration at 8 h: 603 ± 481 ng/g
[1]; [9]
  concentration at 0.5 h: 633 ± 619 ng/g
  concentration at 2 h: 217 ± 116 ng/g
  concentration at 4 h: 152 ± 73.9 ng/g
[1]; BALB/c nude, mouse, muscle, oral, 30 mg/kg, single, 8 h, read-out: FM concentration, Muscle
  concentration at 8 h: 43.1 ± 42 ng/g
[1]; [10]
  concentration at 0.25 h: 653 ± 108 ng/mL
  concentration at 0.5 h: 857 ± 74.5 ng/mL
  concentration at 1 h: 922 ± 302 ng/mL
  concentration at 2 h: 458 ± 88.2 ng/mL
  concentration at 4 h: 248 ± 80.8 ng/mL
[1]; BALB/c nude, mouse, plasma, oral, 30 mg/kg, single, 8 h, read-out: FM concentration, Plasma
  concentration at 8 h: 59.9 ± 50 ng/mL
[1]; BALB/c nude, mouse, plasma, oral, 30 mg/kg, single, 12 h, read-out: FM concentration, Plasma
  concentration at 12 h: 61.4 ± 64.3 ng/mL
[1]; BALB/c nude, mouse, 30 mg/kg, AUC(0-24h) of spleen higher than that of plasma, single oral 30 mg/kg
  Kp: 15.3
[1]; BALB/c nude, mouse, 30 mg/kg, single oral 30 mg/kg, read-out: Cmax of spleen higher than that of plasma
  Kp: 11.7
[1]; [11]
  concentration at 0.25 h: 5630 ± 710 ng/g
  concentration at 0.5 h: 10400 ± 2660 ng/g
  concentration at 1 h: 9930 ± 3970 ng/g
  concentration at 2 h: 8530 ± 1510 ng/g
  concentration at 4 h: 3810 ± 1880 ng/g
[1]; BALB/c nude, mouse, spleen, oral, 30 mg/kg, single, 8 h, read-out: FM concentration, Spleen
  concentration at 8 h: 1410 ± 968 ng/g
[1]; BALB/c nude, mouse, spleen, oral, 30 mg/kg, single, 12 h, read-out: FM concentration, Spleen
  concentration at 12 h: 358 ± 228 ng/g
[1]; BALB/c nude, mouse, spleen, oral, 30 mg/kg, single, 24 h, read-out: FM concentration, Spleen
  concentration at 24 h: 32.6 ± 13.3 ng/g
[1]; BALB/c nude, mouse, spleen, 8 h after single oral 30 mg/kg, converted, read-out: drug concentration in the spleen
  concentration at 8 h: ~2420 nM
[1]; BALB/c nude, mouse, spleen, 12 h after single oral 30 mg/kg, converted, read-out: concentration of FM in spleen
  concentration at 12 h: ~614 nM
[1]; [12]
  concentration at 0.5 h: 30300 ± 18400 ng/g
  concentration at 2 h: 30500 ± 29000 ng/g
  concentration at 4 h: 17700 ± 10900 ng/g
[1]; BALB/c nude, mouse, stomach, oral, 30 mg/kg, single, 8 h, read-out: FM concentration, Stomach
  concentration at 8 h: 6840 ± 10500 ng/g
[1]; [13]
  AUC(0-t): 2990 ± 558 ng·h/mL
  Cmax: 1030 ± 174 ng/mL
  half-life: 2.31 ± 0.79 h
[1]; [14]
  Cmax: 12000 ± 3470 ng/g
  half-life: 2.71 ± 0.51 h
[1]; Plasma, single oral 30 mg/kg
  Cl: 168.7 ± 36.2 mL/min/kg
  Vdss: 32.84 ± 10.12 L/kg
FLT3
  IC50: 15 nM
HEL
  IC50: 0.26 ± 0.2 µM
Molm-13
  IC50: 0.06 ± 0.03 µM
Ba/F3-FLT3-ITD
  IC50: 0.12 ± 0.01 µM
[2]; 0 h
  concentration at 0 h: 6.3 ± 3.68 ng/g
[2]; 0.5 h
  concentration at 0.5 h: 283 ± 93.8 ng/g
[2]; 2 h
  concentration at 2 h: 369 ± 113 ng/g
[2]; 4 h
  concentration at 4 h: 492 ± 754 ng/g
[2]; 8 h
  concentration at 8 h: 47 ± 31.3 ng/g
[2]; 12 h
  concentration at 12 h: 10.8 ± 4.65 ng/g
